Test results taken from article PMC9609496, “Synthesis, In Vitro Anti-Microbial Analysis and Molecular Docking Study of Aliphatic Hydrazide-Based Benzene Sulphonamide Derivatives as Potent Inhibitors of α-Glucosidase and Urease” (Molecules, 2022).
Where two headings read alike, the source gives them in different places.

Assays:
urease = urease (Canavalia ensiformis, UniProt P07374); assay: biochemical; type: biochemical
Method: Figure S6. High resolution Proton NMR Spectrum of 3-chloro-N'- undecanoylbenzenesulfonohydrazide (4.13).
4.16. Urease Assay Protocol
The reaction mixtures, which included […] of enzyme solution and […] of buffers containing 100 mM urea, were incubated in 96-well plates at 30 °C for 15 min with […] of the test compounds (0.5 mM concentration). The urea concentrations were adjusted from 2 -24 mM for the kinetics evaluation. By quantifying ammonia production with Weatherburn's indophenol technique, urease activity was determined.. To each well, 45 μL of the phenol reagent (1% w/v phenol and 0.005% w/v sodium nitroprusside) and 70 μL of the alkali reagent (0.5% w/v NaOH and 0.1% active chloride NaOCl) were added. Using a microplate reader, the rising absorbance at 630 nm was observed after 50 minutes (Molecular Device, USA). In a final volume of […], each reaction was carried out three times. Using the software SoftMaxPro, the results (change in absorbance per minute) were processed (molecular Device, USA). The experiments were run at pH 6.8 throughout. The formula 100-(ODtest well/ODcontrol) 100 was […]
used to calculate the percentage of inhibition. Thiourea was used as the standard inhibitor for […]
4.17. α-Glucosidase Inhibitory Assay Protocol […]
phosphate buffer (pH=6.8), were incubated at 37°C for 15 min in a 96-well plate. 20 µl of p-nitrophenyl—D-glucopyranoside solution was further added as a substrate and again incubated for 20 min at 37 °C. Sodium carbonate (50 µl of 0.1M) was added to terminate the reaction. P-nitrophenol was liberated, during the reaction which was measured at 405n m u sing an ELISA […]
conditions by omitting test samples. All the experiments were carried out in triplicates. The percentage inhibition was calculated by the formula.
% Inhibition = [(Ac – As) /Ac] × 100 Ac-absorbance for control, As-absorbance for standard.
4.18. Molecular Docking Assay
In this study the synthesized compounds were analyzed against α-amylase and α-glucosidase enzyme. […]

Alternaria alternate = assay: Anti-fungal activity; type: cell-based; conditions: against Alternaria alternate, standard drug Terinafine
[1] = read-out: Anti-Urease IC50 (µM ± SEM)

Chain of urease (P07374 whole entry, looked up): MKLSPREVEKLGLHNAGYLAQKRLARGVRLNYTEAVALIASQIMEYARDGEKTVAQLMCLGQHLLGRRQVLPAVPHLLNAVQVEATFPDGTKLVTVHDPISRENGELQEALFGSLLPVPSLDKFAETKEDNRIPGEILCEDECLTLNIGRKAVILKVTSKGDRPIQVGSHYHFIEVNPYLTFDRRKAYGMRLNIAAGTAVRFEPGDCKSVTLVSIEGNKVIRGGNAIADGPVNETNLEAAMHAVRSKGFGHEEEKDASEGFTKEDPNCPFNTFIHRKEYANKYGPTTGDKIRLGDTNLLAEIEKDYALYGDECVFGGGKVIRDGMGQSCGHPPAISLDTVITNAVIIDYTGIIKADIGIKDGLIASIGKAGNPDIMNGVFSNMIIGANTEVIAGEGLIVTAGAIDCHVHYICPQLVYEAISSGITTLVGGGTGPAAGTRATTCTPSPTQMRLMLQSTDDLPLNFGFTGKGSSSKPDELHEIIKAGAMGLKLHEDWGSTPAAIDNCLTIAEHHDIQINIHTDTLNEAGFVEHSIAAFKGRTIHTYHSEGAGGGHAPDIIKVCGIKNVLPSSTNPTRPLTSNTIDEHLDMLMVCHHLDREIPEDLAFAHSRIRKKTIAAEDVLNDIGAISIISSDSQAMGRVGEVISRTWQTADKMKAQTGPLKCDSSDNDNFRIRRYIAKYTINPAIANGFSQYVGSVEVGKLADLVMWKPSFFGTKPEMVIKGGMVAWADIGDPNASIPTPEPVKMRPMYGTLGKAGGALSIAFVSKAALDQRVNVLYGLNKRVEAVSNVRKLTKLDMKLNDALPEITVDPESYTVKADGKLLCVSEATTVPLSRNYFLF

Structure (SMILES) | IC50 (urease) | anti-fungal activity (Alternaria alternate) | IC50 (urease; [1]) | melting point
CCCCC(=O)NNS(=O)(=O)c1ccc(F)cc1[N+](=O)[O-] [Analog 5] | 2.1 ± 0.1 µM | exhibited anti-fungal profiles | – | –
CCCCCCCCCCC(=O)NNS(=O)(=O)c1cccc(Cl)c1 [Analog 13, 3-chloro-N'-undecanoylbenzenesulfonohydrazide] | – | – | 18.4 ± 0.3 µM | 168 to 169 °C
NC(N)=S [thiourea, reference compound] | – | – | 7.8 µM | –
